Test results: patent US20240226211A9, “SEAWEED EXTRACTS, ISOLATED COMPOUNDS, AND METHODS OF TREATMENT” (University of Florida Research Foundation, Incorporated, priority 2017, published 2024)

What was measured:
[1] = test system: Nrf2; assay: RNA interference of Nrf2 in IMR-32 cells, NQO1 induction; assay type: cell-based, human; conditions: IMR-32, 48 h RNAi then 24 h treatment
Method: The media was then carefully aspirated and replaced with a transfection mixture composed of siRNAs (50 nM) and siLentFect™ lipid transfection reagent (Bio-Rad Laboratories) in fresh medium. […] The siRNAs, siGENOME Non-Targeting siRNA Pools and siGENOME SMARTpool (human NFE2L2), were purchased from Dharmacon.
In order to determine whether NQO1 induction is Nrf2 dependent, IMR-32 cells were transfected with siRNA targeting Nrf2 or non-targeting siRNA. After 48 hours of RNAi of Nrf2, cells were treated with the samples or the vehicle control for 24 hours.

[2] = biological target: T1, Keap1 (Cys-151) (Homo sapiens, UniProt Q14145); assay: Keap1 Cys-151 reactivity in co-transfected HEK293 cells; assay type: cell-based; conditions: for Keap1-associated Cul3 / Keap1-Cul3 interaction: Keap1-CBD and HA-Cul3
T1 construct: expressed in transfected cells; host or cells: HEK293
Source text: The ARE-luciferase reporter construct (ARE-luc) contains the core sequence of human NQO1-ARE1. […] Mol. Cell. […] The Keap1-CBD plasmid carries the entire open reading frame (ORF) of human Keap1 fused to the chitin binding domain (CBD) of the Bacillus circulans chitinase A1 gene upstream of the Keap1 stop codon. Oligonucleotide-directed mutagenesis was used to generate the Keap1-C151S-CBD and Keap1-C288S-CBD plasmids. The HA-Cul3 plasmid was constructed by fusing an N-terminal hemagglutinin (HA) tag with a cDNA sequence coding for amino acids 1-380 of human Cul3 gene. The Gal4-Neh2 expression vector contains the codons for the first 97 amino acids (Neh2 domain) of human Nrf2 fused to the ORF of the Gal4 DNA-binding domain
The reactivity at the amino acid level of KEAP1 was then investigated. […] In order to evaluate specific cysteine residues which may be alkylated in the presence of cymopols, HEK293 cells were co-transfected with either a mock plasmid, a wild-type Keap1-CBD, or a Keap1-C151S-CBD and HA-Cul3 (to evaluate Cul3 binding inhibition upon cymopol addition), HA-Nrf2 (to evaluate Nrf2-Keap1 interactions), or Gal4-Neh2 and HA-Ub (to evaluate ubiquitination patterns of Nrf2).

[3] = test system: iNOS; assay: iNOS transcript levels in RAW264.7 macrophage cells; assay type: cell-based, mouse; conditions: 10 μM Compound 1, IFN-γ
Method: The RNeasy Mini Kit (Qiagen) was used to collect total RNA from cells, while for mouse tissue, TRIzol reagent (Invitrogen) was used. In each case, total RNAs (2 μg) were reverse-transcribed into cDNAs, which were used as templates for TaqMan gene expression assay (Applied Biosystems) and detected using the 7300 Real-Time PCR System (Applied Biosystems). Each qPCR sample was tested in triplicate as a 25 μL total reaction volume (12.5 μL of Taqman 2× universal master mix, 1.25 μL of a 20× TaqMan gene expression assay probe, 1 μL of the above cDNA, and 10.25 μL of RNase-free sterile water). The qPCR method was designed as following: 50° C. for 2 min, 95° C. for 10 min, and 40 cycles of 95° C. for 15 s and 60° C. for 1 min. Endogenous controls used included GAPDH for IMR-32 cells and β-actin to normalize for RAW264.7 cells and mouse tissues.
RAW264.7 cells were seeded in 6-well plates (8×10^5 cells/well) and incubated at 37° C. overnight.

[4] = test system: neutrophil migration to cut site, Tg(mpx::GFP) zebrafish; assay: Zebrafish in vivo neutrophil migration assay; parameters: species or system Danio rerio; conditions: relative to DMSO vehicle control
Method: Tg(mpx::GFP)^ill4 transgenic zebrafish larvae (6 dpf) were pre-treated in duplicate with a solvent control ((DMSO, 1%, v/v) or serial dilutions of the compound or extract in 12-well plate format with five larvae per well containing 1 mL E2 medium containing 1 mM Tris pH 7.4. After 3 hours, larvae were anesthetised with Tricaine and tailfins were amputated using sharp blades to induce the migration of neutrophils. The larvae were then placed into fresh wells to be post-treated for an additional 3 hours. A fluorescence stereomicroscope was used to count the number of neutrophils that migrated to the site of injury. The assay was performed in triplicate to determine statistical significance.
For in vivo evaluation, a previously reported neutrophil migration assay in the model organism, Danio rerio, was used [Wang X, et al. (2014) Inhibitors of neutrophil recruitment identified using transgenic zebrafish to screen a natural product library. Dis Model Mech 7(1):163-169]. […] The fish were then quickly transferred into fresh media containing the treatments for an additional 3 h before the GFP-tagged neutrophils were counted under the fluorescent microscope. […]

T1 sequence (Q14145 whole entry): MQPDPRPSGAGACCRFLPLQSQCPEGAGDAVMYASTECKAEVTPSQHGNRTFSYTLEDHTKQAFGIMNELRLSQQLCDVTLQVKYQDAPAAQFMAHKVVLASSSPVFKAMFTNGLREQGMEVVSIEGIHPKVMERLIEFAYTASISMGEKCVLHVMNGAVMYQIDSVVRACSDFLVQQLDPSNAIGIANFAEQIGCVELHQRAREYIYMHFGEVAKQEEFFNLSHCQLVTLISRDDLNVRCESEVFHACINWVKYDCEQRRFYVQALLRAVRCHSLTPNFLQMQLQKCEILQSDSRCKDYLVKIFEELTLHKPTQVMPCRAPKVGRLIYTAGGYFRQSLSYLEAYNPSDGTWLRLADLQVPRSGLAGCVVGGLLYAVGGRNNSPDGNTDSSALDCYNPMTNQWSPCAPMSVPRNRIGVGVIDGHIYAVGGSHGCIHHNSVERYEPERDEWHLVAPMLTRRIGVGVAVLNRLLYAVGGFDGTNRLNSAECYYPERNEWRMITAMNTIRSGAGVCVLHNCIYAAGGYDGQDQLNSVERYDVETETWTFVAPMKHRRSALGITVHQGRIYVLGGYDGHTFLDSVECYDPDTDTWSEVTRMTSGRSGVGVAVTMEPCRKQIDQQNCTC

With `CC(C)=CCC/C(C)=C/Cc1cc(O)c(Br)cc1O` [Compound 1, (E)-2-bromo-5-(3,7-dimethylocta-2,6-dien-1-yl)benzene-1,4-diol] the “induction of NQO1 transcript levels in siNrf2 transfected cells” value [1] was “inhibited in siNrf2 transfected cells”, the “Keap1-associated Cul3 / Keap1-Cul3 interaction” value [2] was “increase binding of Keap1-Cul3 interaction” and the “Keap1-associated Cul3 / Keap1-Cul3 interaction” value ([2]; listed as compound 1) was “reduced”. The “dimerization of Keap1” value ([2]; Keap1-CBD and HA-Nrf2, dependent on Cys-151) was “increase dimerization of Keap1”, the Neh2 ubiquitination ([2]; wild-type Keap1, Gal4-Neh2 and HA-Ub, preliminary data) was “less Neh2 ubiquitination” and the “levels of Neh2” value ([2]; wild-type Keap1, preliminary data) was “higher levels of Neh2”. The “lowering of induced iNOS transcript levels” value [3] was > 96% and the “number of neutrophils at the cut site” value [4] was “decrease of neutrophils”.
